Assay results from patent US20210238170A1, “5,5-Difluoro- and 5-Fluoro-5-Methyl-C-Glycoside Derivatives Useful As Dual SGLT1 / SGLT2 Modulators” (Janssen Pharmaceutica NV, priority 2018, published 2021).

Key:
[1] = biological target: T1, human SGLT1 (Homo sapiens, UniProt P13866); experiment: SGLT1 in vitro assay: Na-dependent 14C-AMG uptake in CHO-K1 cells stably expressing human SGLT1; type: cell-based; conditions: CHO-K1 cells stably expressing human SGLT1, 14C-AMG uptake; for inhibition at 0.3 µM: read-out: SGLT1 % Inh @ 0.3 μM; for IC50: compounds of formula (I) where R0 is fluoro
T1 construct: expressed in transfected cells
T1 sequence (P13866 1-664): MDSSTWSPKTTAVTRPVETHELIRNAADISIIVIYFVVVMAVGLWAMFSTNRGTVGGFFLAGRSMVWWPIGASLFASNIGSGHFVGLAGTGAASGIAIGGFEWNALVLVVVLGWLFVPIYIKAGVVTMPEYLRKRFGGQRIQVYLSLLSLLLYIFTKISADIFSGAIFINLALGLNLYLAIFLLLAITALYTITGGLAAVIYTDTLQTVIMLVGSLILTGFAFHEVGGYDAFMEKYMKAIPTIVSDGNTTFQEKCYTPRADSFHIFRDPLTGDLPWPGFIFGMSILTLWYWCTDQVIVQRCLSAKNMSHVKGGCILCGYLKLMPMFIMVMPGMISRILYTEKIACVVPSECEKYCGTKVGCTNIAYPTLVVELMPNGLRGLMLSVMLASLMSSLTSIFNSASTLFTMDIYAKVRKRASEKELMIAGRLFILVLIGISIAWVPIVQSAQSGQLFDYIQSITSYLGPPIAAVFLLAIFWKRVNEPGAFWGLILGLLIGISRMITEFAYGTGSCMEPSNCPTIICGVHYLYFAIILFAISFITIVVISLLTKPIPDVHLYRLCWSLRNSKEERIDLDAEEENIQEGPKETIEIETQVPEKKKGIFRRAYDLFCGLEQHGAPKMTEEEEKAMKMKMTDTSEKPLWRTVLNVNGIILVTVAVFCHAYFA
Summary of the method: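 CHO-K1 cells stably expressing human SGLT1 or SGLT2, induced with 10 mM Na-butyrate for 24 h. Compounds (0.001–10 μM) in Na+-containing HEPES/Tris buffer pH 7.4 were applied for 10 min, then 14C-AMG ([…]) for 2 h at 37°C; Na-dependent uptake read by scintillation; %-inhibition or IC50.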

[2] = system: SD rats; experiment: Oral Glucose Tolerance Test (OGTT) in SD rats: blood glucose excursion AUC and urine glucose excretion; type: in vivo, rat; conditions: mean ± SE; for response vs control in vivo at 1 mg/kg / response vs control in vivo at 10 mg/kg: Rattus norvegicus, 2 h, n = 8, read-out: 120-min Blood Glucose AUC vs Vehicle (%); for Urine Glucose Excretion (g/0-4 hr): n = 8
Experimental: Biological Example 2: In Vivo Assay
Oral Glucose Tolerance Test (OGTT) in SD Rats
Overnight fasted SD rats were allocated into vehicle or test compound treatment groups based on their body weights (n=8 in each group). The animals were orally dosed with vehicle or test compound at a volume of 10 ml/kg at 30-minute prior to OGTT. The animals then received an OGTT challenge with 2 g/kg (50% glucose solution at the volume of 4 ml/kg, orally). The animals were immediately transferred into metabolic cages after they were dosed with the glucose. Blood glucose levels were measured at 0 (pre-OGTT), 30, 60, and 120 minutes after OGTT using one-touch Glucometer. Blood glucose excursion AUC (area under the curve of blood glucose) was determined from the blood glucose levels measured at the timepoints.
Table 9 below, presents the measured efficacy of the test compound(s), expressed as the percentage (%) of blood glucose AUC vs that in vehicle group. The data is interpreted such that, the smaller the percentage of blood glucose AUC of compound vs vehicle, the greater the efficacy of the test compound. Urine volume and urine glucose concentrations (tested by using Olympus system with Genzyme diagnostics assay reagent) were measured to determine the urine glucose excretion (UGE) in 4-hr period after OGTT (0-4 hours).

[3] = system: db/db mice; experiment: SGLT inhibition evaluated in db/db mice: fed blood glucose AUC and 24-hr urine glucose excretion; type: in vivo, mouse; conditions: oral dose 10 mg/kg, mean ± SE, n = 8; for 24-hr Blood Glucose AUC vs Vehicle (%): fed
Experimental: Biological Example 3: In Vivo Assay
SGLT Inhibition Evaluated in db/db Mice
Based on fed blood glucose levels, db/db mice were allocated into either vehicle or test compound treated groups (n=8 in each group). After grouped, the mice were orally dosed with either vehicle or test compound at 0 and 10 mg/kg, in a volume of 10 ml/kg. The mice were then immediately transferred into mouse metabolic cages, after they were dosed. Fed blood glucose levels were determined at multiple timepoints after the animals were treated. Fed blood glucose AUC (area under the curve of blood glucose) was determined from the blood glucose levels measured at the timepoints.
Table 10 below, presents the measured efficacy of the test compound(s), expressed as a percentage (%) of blood glucose AUC vs that in vehicle group. The data is interpreted such that, the smaller the percentage of blood glucose AUC of compound vs vehicle, the greater efficacy of the test compound. Total urine glucose excretion (UGE) over the 24-hr period post treatment was calculated based on urine glucose concentrations and urine volumes at multiple timepoints. Urine glucose was measured using Olympus system with Genzyme diagnostics assay reagent.

SMILES	inhibition at 0.3 µM [1] [%]	IC50 [1] [nM]	response vs control in vivo at 1 mg/kg ([2]; oral dose 1 mg/kg) [%]	response vs control in vivo at 10 mg/kg ([2]; oral dose 10 mg/kg) [%]	Urine Glucose Excretion (g/0-4 hr) ([2]; oral dose 1 mg/kg)	Urine Glucose Excretion (g/0-4 hr) ([2]; oral dose 10 mg/kg)	24-hr Blood Glucose AUC vs Vehicle (%) [3] [%]	Urine Glucose Excretion (g/24 hr) [3] [g/24 hr]
COc1cc(O)c([C@@H]2O[C@H](CO)C(F)(F)[C@H](O)[C@H]2O)cc1Cc1ccc2c(c1)CCCO2 [Compound 44, (2S,3R,4R,6R)-2-(5-(chroman-6-ylmethyl)-2-hydroxy-4-methoxyphenyl)-5,5-difluoro-6-(hydroxymethyl)tetrahydro-2H-pyran-3,4-diol]	56.2	96	61.7 ± 2.1	39.3 ± 1.7	0.002 ± 0.001	0.2 ± 0.02	48.4 ± 3.4	0.55 ± 0.12
COc1ccc(Cc2cc([C@@H]3O[C@H](CO)C(F)(F)[C@H](O)[C@H]3O)c(O)cc2Cl)cc1 [Compound 81, (2S,3R,4R,6R)-2-(4-chloro-2-hydroxy-5-(4-methoxybenzyl)phenyl)-5,5-difluoro-6-(hydroxymethyl)-tetrahydro-2H-pyran-3,4-diol]	76.6	34	77.5 ± 2.4	41 ± 2.7	0.099 ± 0.037	0.276 ± 0.032	55.0 ± 4.6	–
